Our source for the outcome values is PubChem BioAssay AID2202554 (NIEHS Division of Translational Toxicology (DTT)).

Inconclusive results are not listed. Calls of active or inactive are those of the source. How the calls were made is not given here.

The data set deals with S. typhimurium/E. coli reverse mutation, colony counts. Description: Bacterial reverse mutation test (aka Ames test) summary data. The essentials: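 S. typhimurium his⁻ strains (TA97–TA1538) and E. coli WP2 uvrA pKM101 trp⁻, dosed over a range with or without rat, hamster or mouse liver S9. Preincubated 20 min at 37° C (or plate incorporation), plated in agar, incubated usually two days. Revertant colonies counted against negative controls.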
(The Ames test detects mutagens through reverse mutation in bacteria.)
As to `COCCO`, the outcome is “inactive; negative”. Consider `Cc1cccc(C)c1[N+](=O)[O-]`, for which the outcome was “active; weakly positive”.

Take `CCOCCOC(C)=O`: the outcome was “active; positive”. `c1ccc(Nc2ccc3ccccc3c2)cc1`: the outcome was “inactive; negative”. Take `c1cc2ccc3cccc4ccc(c1)c2c34`: the outcome is “active; positive”. As for `CC(O)c1ccccc1` (centres undefined), the outcome was “inactive; negative”. As for `CNc1ccccc1`, the outcome was “inactive; negative”. As to `CCCCCN(CCCCC)CCCCC`, the outcome was “inactive; negative”.

As to `C=C(C)C1CC=C(C)C(O)C1` (centres undefined), the outcome was “inactive; negative”. For the molecule `CC(C)(c1ccc(O)cc1)c1ccc(O)cc1`, the outcome is “inactive; negative”.

As to `CN(C)CCN(Cc1ccsc1)c1ccccn1`, the outcome was “inactive; negative”.

Consider `COc1cc(-c2ccc(N=Nc3c(S(=O)(=O)O)cc4cc(S(=O)(=O)O)cc(N)c4c3O)c(OC)c2)ccc1N=Nc1c(S(=O)(=O)O)cc2cc(S(=O)(=O)O)cc(N)c2c1O`, for which the outcome is “inactive; negative”.

As for `OC[P+](CO)(CO)CO`, the outcome was “inactive; negative”.

Consider `Cc1ccc(C)cc1`, for which the outcome was “inactive; negative”. To `O=C(O)C(=O)O` belongs “inactive; negative”; to `C[C@@H]1Cc2c(Cl)cc(C(=O)N[C@@H](Cc3ccccc3)C(=O)O)c(O)c2C(=O)O1`, “inactive; negative”.

With `CC(CO)(CO)[N+](=O)[O-]`, the outcome is “inactive; negative”. Turning to `CC(CO)[N+](=O)[O-]` (centres undefined), the outcome was “inactive; negative”. In the case of `CCN1CCOCC1`, the outcome is “active; weakly positive”. Take `Cc1cc(Cl)ccc1O`: the outcome is “inactive; negative”. As for `CCn1c2ccccc2c2cc(N)ccc21`, the outcome was “active; positive”. To `Nc1cc(Cl)ccc1O` belongs “active; weakly positive”; to `[CH3][Sn]([CH3])([Cl])[Cl]`, “inactive; negative”.

In the case of `CCN(CC)CCNc1ccc(CO)c2sc3ccccc3c(=O)c12`, the outcome is “active; positive”.

Consider `Nc1ccc(F)cc1F`, for which the outcome is “active; positive”. For the molecule `O=S(=O)(c1ccc(Cl)cc1)c1ccc(Cl)cc1`, the outcome was “inactive; negative”.

For the molecule `O=[N+]([O-])c1ccc(Nc2ccccc2O)c([N+](=O)[O-])c1`, the outcome was “active; positive”. Under `[CH3][Hg+]` stands “inactive; negative”. To `Nc1ccc(S(=O)(=O)c2ccc(N)cc2)cc1` belongs “inactive; negative”; to `Clc1c(Cl)c(Cl)c2c(Cl)c(Cl)c(Cl)c(Cl)c2c1Cl`, “inactive; negative”. On to `CCCOC(=O)c1cc(O)c(O)c(O)c1`, for which the outcome was “inactive; negative”. Consider `NC(=O)CC(N)=O`, for which the outcome is “inactive; negative”. In the case of `C=CC(=O)OC`, the outcome was “inactive; negative”. Under `CCOc1ccccc1C(N)=O` stands “inactive; negative”; under `Cc1ccc(O)c(N)c1`, “active; positive”; under `CCCCC(CC)COS(=O)(=O)O` (centres undefined), “inactive; negative”. Turning to `O=NN1CCCCC1`, the outcome was “active; positive”. Turning to `O=C(O)C(F)(F)C(F)(F)C(F)(F)C(F)(F)C(F)(F)F`, the outcome is “inactive; negative”. As for `Cn1c(-c2ccccc2)c(N=Nc2scc[n+]2C)c2ccccc21`, the outcome is “active; positive”.

For the molecule `Cc1cccc(O)c1`, the outcome was “inactive; negative”.

In the case of `Nc1ccc(N=Nc2ccc(-c3ccc(N=Nc4c(S(=O)(=O)O)cc5cc(S(=O)(=O)O)c(N=Nc6ccccc6)c(O)c5c4N)cc3)cc2)c(N)c1`, the outcome is “active; positive”. Turning to `CCCC(=O)c1cc(O)c(O)cc1O`, the outcome was “active; positive”.

With `CC1=C(/C=C/C(C)=C/C=C/C(C)=C/CO)C(C)(C)CCC1`, the outcome is “active; weakly positive”. As for `O=C1NC(=O)C(O)(O)C(=O)N1`, the outcome was “inactive; negative”.

With `c1ccc2c(c1)ccc1ncccc12`, the outcome was “active; positive”. As for `Oc1ccc(Cl)cc1Cc1cc(Cl)ccc1O`, the outcome is “active; positive”. Under `CCCCCCCCCC=CCC1CC(=O)OC1=O` (centres undefined) stands “inactive; negative”; under `CCN(C=O)CC`, “inactive; negative”; under `Oc1cccc(O)c1`, “inactive; negative”. Regarding `ClC(Cl)C(Cl)Cl`, the outcome was “inactive; negative”.

As to `CC=NO`, the outcome was “active; positive”. `CCOc1ccc(NC(C)=O)cc1`: the outcome was “inactive; negative”.

Regarding `O=NO`, the outcome was “active; positive”. `NC(=O)N=NC(N)=O`: the outcome is “active; positive”. To `C=C(C)/C([O-])=N/[N+](C)(C)CC(C)O` (centres undefined) belongs “inactive; negative”.

For the molecule `NCCNCCNCCN`, the outcome is “active; positive”. On to `O=[N+]([O-])c1ccc(Cl)cc1`, for which the outcome was “active; positive”. `S=c1[nH]c2ccccc2[nH]1`: the outcome was “inactive; negative”. Regarding `Nc1nc2ccc([N+](=O)[O-])cc2s1`, the outcome was “active; positive”. On to `CCCCCCCCCCCCCOC(=O)c1ccccc1C(=O)OCCCCCCCCCCCCC`, for which the outcome was “inactive; negative”. Regarding `C[C@H]1CCCC(=O)CCC/C=C/c2cc(O)cc(O)c2C(=O)O1`, the outcome was “inactive; negative”. In the case of `c1ccc2cc(Nc3ccc(Nc4ccc5ccccc5c4)cc3)ccc2c1`, the outcome is “active; positive”. As to `CCCCCCCCOC(=O)c1ccccc1C(=O)OCCCCCCCC`, the outcome is “inactive; negative”. For the molecule `Cc1cscn1`, the outcome was “inactive; negative”. In the case of `CC(C)[N+](C)(CCOC(=O)C1c2ccccc2Oc2ccccc21)C(C)C`, the outcome was “inactive; negative”. For `C=CC(=O)OCC(Br)CBr` (centres undefined), the outcome is “active; positive”.

As for `[O-][n+]1ccccc1SSc1cccc[n+]1[O-]`, the outcome was “inactive; negative”. As to `O=C1c2ccccc2-c2ccc3c4c(ccc1c24)-c1ccccc1C3=O`, the outcome was “inactive; negative”.

Turning to `CCOC(=O)C1=C[C@]2(CC)CCCN3CCc4c(n1c1ccccc41)[C@@H]32`, the outcome was “inactive; negative”. Under `C=Cc1ccccn1` stands “active; positive”. With `CC1(C)S[C@@H]2[C@H](NC(=O)[C@H](N)c3ccccc3)C(=O)N2[C@H]1C(=O)O`, the outcome was “inactive; negative”. As for `CCNc1ccccc1`, the outcome is “inactive; negative”. As to `CCOc1ccc(N=Nc2ccc(-c3ccc(N=Nc4c(O)ccc5cc(S(=O)(=O)O)cc(S(=O)(=O)O)c45)c(C)c3)cc2C)cc1`, the outcome is “inactive; negative”. To `Oc1ccc2c(c1)OCO2` belongs “inactive; negative”; to `BrC(Br)Br`, “active; positive”. Regarding `N#CCCCCC#N`, the outcome was “inactive; negative”. As for `C[Si](C)(C)N[Si](C)(C)C`, the outcome is “inactive; negative”. For the molecule `Cc1ncc[nH]1`, the outcome is “inactive; negative”. Take `COc1ccc2c(c1OC)C(=O)O[C@@H]2[C@H]1c2cc3c(cc2CCN1C)OCO3`: the outcome was “inactive; negative”.
